Experimental data from patent US20080159958A1, “DETERMINATION OF HISTAMINE-3 BIOACTIVITY” (Abbott Laboratories, priority 2006, published 2008).
Like-named read-outs stand apart in the source and are kept apart here.

Legend:
rat 1-4 Hz EEG amplitude = test: Rat cortical EEG, H1R or H3R antagonist given alone (1-4 Hz amplitude); format: in vivo; conditions: rats, vs. vehicle control
Description: (§1) All experiments have been approved by the Institutional Animal Care and Use Committee (IACUC) at Abbott Laboratories and are in strict accordance with the ethical guidelines for use of laboratory animals. All experiments were conducted with male adult CD-1 rats of the Sprague-Dawley strain (Charles River Laboratories, Portage, Mich.) with body weights in the range of 400-600 g. When the rats were not in the laboratory being tested, they were housed 1 per cage in a climate controlled room with 12 hour lights on, 12 hour lights off cycle and food provided ad-lib.
(§2) For anesthesia during surgical implantation of EEG recording electrodes, rats are administered Nembutal (Abbott Laboratories) […] ip. After achieving a deep, stable plane of anesthesia, scalp hair is removed using electric clippers and the rat is placed into the ear and incisor bars of a stereotaxic instrument to immobilize the head. The scalp is disinfected with povidone iodine, and an incision is placed longitudinally along the midline of the scalp and the tissue retracted from the skull with a blunt probe. EEG recording electrodes are bilaterally implanted over the parietal (−2.0 mm anterior-posterior, 4.0 mm lateral from bregma) and frontal (+2.0 mm anterior-posterior, 3.0 mm lateral from bregma) cortices. A reference electrode was placed 11.0 mm posterior to bregma along the centerline (0.0 mm lateral). Cortical surface electrodes consist of stainless steel screws (size #90-00) soldered to a fine wire and a miniature electrical socket. To implant the electrodes, small holes are drilled (#60 bit) into the skull, taking care not to damage the dura with the drill bit. […] Once in place, the electrodes along with the miniature connector are permanently affixed to the skull with acrylic dental cement. The rats are given a 10-14 day recovery period from the surgery before experiments are conducted.
The EEG was recorded from rats inside sound-attenuating chambers (Med Associates Inc, St. Albans, Vt.). Before any pharmacological experiments began, implanted rats were habituated to the EEG recording chambers for 2-5 hours on 5 consecutive days. When placed into the recording chambers, a flexible cable is attached to the miniature connector implanted on the rats. This cable allows the rat unrestricted movement within the chambers during the recording session. EEG amplifiers (AM Systems, Inc., Carlsborg, Wash.) and a computer-based data acquisition system (Datawave Inc., Berthoud, Colo.) were used to acquire (256 Hz sampling rate) and analyze data. All experiments and habituation sessions were conducted during the light phase of the circadian cycle.
Dose response effects on EEG were determined for the H3R antagonist Compound 1 (0.01-1.0 mg/kg), ABT-239 (0.1-3.0 mg/kg), and thioperamide (3.0-30.0 mg/kg). […] Dose response effects on EEG were also determined for the H1 antagonist diphenhydramine (1.0-10.0 mg/kg). […] Each rat received a vehicle control treatment (placebo), and all doses of the test compounds. All treatments were administered by the intraperitoneal (i.p.) route of administration. The treatments were administered in a random order on different days with one treatment per day, and at least 2 days between treatments. This within subjects design allowed each rat to serve as its own control. EEG recordings were begun within 10 minutes after injection and recording sessions lasted for 120 minutes. The time of day for injections and subsequent recordings were between 10:00 AM and 2:00 PM.
(§3) Assessment of cortical low frequency EEG amplitude in the 1-4 Hz band (delta) was used as an electrophysiological measure of H1R and H3R antagonist activity in rats. The average 1-4 Hz EEG amplitude in microvolts (μV) was determined for 10 second epochs using Fast Fourier Transform (FFT) analysis. To determine the average 1-4 Hz EEG amplitude for the first 60 minutes of the recording, 360-10 sec FFT analyzed epochs were averaged together. […]

[1] = molecular target: rat histamine H3 receptor (Rattus norvegicus, UniProt Q9QYN8); test: Competition binding assay with [3H]-N-α-methylhistamine, rat H3 receptor
Sequence of rat histamine H3 receptor (Q9QYN8 whole entry): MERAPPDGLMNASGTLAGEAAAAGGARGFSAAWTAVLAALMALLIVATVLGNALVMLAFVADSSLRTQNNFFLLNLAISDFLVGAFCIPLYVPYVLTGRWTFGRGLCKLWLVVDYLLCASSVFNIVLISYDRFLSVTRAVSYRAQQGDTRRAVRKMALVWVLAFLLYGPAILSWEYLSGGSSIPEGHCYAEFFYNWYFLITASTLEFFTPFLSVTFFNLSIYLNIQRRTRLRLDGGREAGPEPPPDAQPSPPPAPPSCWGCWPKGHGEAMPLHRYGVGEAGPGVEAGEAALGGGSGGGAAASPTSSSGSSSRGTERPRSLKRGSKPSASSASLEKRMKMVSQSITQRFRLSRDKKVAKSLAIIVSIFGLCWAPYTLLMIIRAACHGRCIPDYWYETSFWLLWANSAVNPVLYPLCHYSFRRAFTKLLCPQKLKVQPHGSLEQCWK
Description: The rat and human H3 receptor was cloned and expressed in cells, and competition binding assays carried out, according to methods previously described (see Esbenshade, et al. Journal of Pharmacology and Experimental Therapeutics, vol. 313:165-175, 2005; Esbenshade et al., Biochemical Pharmacology 68 (2004) 933-945; Krueger, et al. Journal of Pharmacology and Experimental Therapeutics, vol. 314:271-281, 2005. Membranes were prepared from C6 or HEK293 cells, expressing the rat histamine H3 receptor, by homogenization on ice in TE buffer (50 mM Tris-HCl buffer, pH 7.4, containing 5 mM EDTA), 1 mM benzamidine, 2 μg/ml aprotinin, 1 μg/ml leupeptin, and 1 μg/ml pepstatin. The homogenate was centrifuged at 40,000 g for 20 minutes at 4° C. This step was repeated, and the resulting pellet was resuspended in TE buffer. Aliquots were frozen at −70° C. until needed. On the day of assay, membranes were thawed and diluted with TE buffer.
Membrane preparations were incubated with [^3H]-N-α-methylhistamine (0.5-1.0 nM) in the presence or absence of increasing concentrations of ligands for H3 receptor competition binding. […] Bound radiolabel was determined by liquid scintillation counting. For all of the radioligand competition binding assays, IC50 values and Hill slopes were determined by Hill transformation of the data and pKi values were determined by the Cheng-Prusoff equation.

[2] = test system: diphenhydramine-induced increase of rat 1-4 Hz EEG amplitude; test: Rat cortical EEG, H3R antagonist co-administered with diphenhydramine (1-4 Hz amplitude); format: in vivo; conditions: rats
Description: as §1, §2
The EEG was recorded from rats inside sound-attenuating chambers (Med Associates Inc, St. Albans, Vt.). Before any pharmacological experiments began, implanted rats were habituated to the EEG recording chambers for 2-5 hours on 5 consecutive days. When placed into the recording chambers, a flexible cable is attached to the miniature connector implanted on the rats. This cable allows the rat unrestricted movement within the chambers during the recording session. […]
as §3

human H3 receptor = molecular target: T1, human H3 receptor (Homo sapiens, UniProt Q9Y5N1); test: Competition binding assay with [3H]-N-α-methylhistamine, human H3 receptor; conditions: cloned human H3 receptor, cell membranes
T1 construct: expressed in transfected cells
T1 sequence (Q9Y5N1 whole entry): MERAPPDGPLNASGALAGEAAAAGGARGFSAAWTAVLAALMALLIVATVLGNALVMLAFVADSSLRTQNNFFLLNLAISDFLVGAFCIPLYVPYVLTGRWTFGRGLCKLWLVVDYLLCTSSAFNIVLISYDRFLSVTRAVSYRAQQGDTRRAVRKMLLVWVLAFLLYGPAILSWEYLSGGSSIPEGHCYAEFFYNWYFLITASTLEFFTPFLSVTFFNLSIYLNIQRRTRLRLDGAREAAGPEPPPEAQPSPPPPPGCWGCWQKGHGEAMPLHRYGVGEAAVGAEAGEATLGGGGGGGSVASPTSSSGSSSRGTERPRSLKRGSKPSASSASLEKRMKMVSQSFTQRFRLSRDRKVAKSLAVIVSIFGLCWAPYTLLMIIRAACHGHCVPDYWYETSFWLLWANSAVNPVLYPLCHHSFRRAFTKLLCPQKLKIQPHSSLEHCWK
Description: Membrane preparations were incubated with [^3H]-N-α-methylhistamine (0.5-1.0 nM) in the presence or absence of increasing concentrations of ligands for H3 receptor competition binding.

## CN1C[C@H]2CCN(c3ccc(-c4ccc(-n5ncccc5=O)cc4)cc3)[C@H]2C1 [Compound 1, (3aR, 6aR)-2-[4′-(5-methyl-hexahydro-pyrrolo[3,4-b]pyrrol-1-yl)-biphenyl-4-yl]-2H-pyridazin-3-one]
Rat 1-4 Hz EEG amplitude; 1.0 mg/kg i.p., first hour after injection
  effect on average amplitude of 1-4 Hz EEG, given alone: lower the average amplitude of 1-4 Hz EEG
Rat 1-4 Hz EEG amplitude; 0.01-0.1 mg/kg i.p., first hour
  effect on average amplitude of 1-4 Hz EEG, given alone: did not produce significant lowering
[1]
  Ki: 8.1 nM
[2]; 0.01 mg/kg i.p. given 15 minutes before diphenhydramine 10.0 mg/kg i.p.
  effect on diphenhydramine-induced increase of average 1-4 Hz EEG amplitude: did not achieve statistical significance
[2]; 0.03 mg/kg and 0.1 mg/kg i.p. given 15 minutes before diphenhydramine 10.0 mg/kg i.p.
  effect on diphenhydramine-induced increase of average 1-4 Hz EEG amplitude: significantly reduces
Human H3 receptor
  Ki: 1.9 nM

## S=C(NC1CCCCC1)N1CCC(c2c[nH]cn2)CC1 [Compound 3, N-cyclohexyl-4-(1H-imidazol-4-yl)piperidine-1-carbothioamide]
Rat 1-4 Hz EEG amplitude; 30.0 mg/kg i.p., first hour after injection
  effect on average amplitude of 1-4 Hz EEG, given alone: lower the average amplitude of 1-4 Hz EEG
Rat 1-4 Hz EEG amplitude; 3.0-10. mg/kg i.p., first hour
  effect on average amplitude of 1-4 Hz EEG, given alone: did not produce significant lowering
[1]; read-out: rat H3 Ki, cloned rat H3 receptor, C6 or HEK293 cell membranes
  Ki: 3.6 nM
[2]; 3.0 mg/kg i.p. given 15 minutes before diphenhydramine 10.0 mg/kg i.p.
  effect on diphenhydramine-induced increase of average 1-4 Hz EEG amplitude: significantly reduces

## CN(C)CCOC(c1ccccc1)c1ccccc1 [diphenhydramine]
Rat 1-4 Hz EEG amplitude; 10.0 mg/kg i.p., first hour
  effect on average amplitude of 1-4 Hz EEG, given alone: significantly increased
Rat 1-4 Hz EEG amplitude; 1.0-3.0 mg/kg i.p., first hour
  effect on average amplitude of 1-4 Hz EEG, given alone: not significantly different from vehicle control

## C[C@@H]1CCCN1CCc1cc2cc(-c3ccc(C#N)cc3)ccc2o1 [Compound 2, 4-(2-[2-((R)-2-methyl-pyrrolidin-1-yl)-ethyl]-benzofuran-5-yl}-benzonitrile]
Rat 1-4 Hz EEG amplitude; 3.0 mg/kg i.p., first hour
  effect on average amplitude of 1-4 Hz EEG, given alone: trend toward a decrease
Rat 1-4 Hz EEG amplitude; 0.1-3.0 mg/kg i.p., first hour
  effect on average amplitude of 1-4 Hz EEG, given alone: did not produce statistically significant lowering
[2]; 0.3 mg/kg i.p. given 15 minutes before diphenhydramine 10.0 mg/kg i.p.
  effect on diphenhydramine-induced increase of average 1-4 Hz EEG amplitude: significantly reduces
